Measurements as given in patent US7507547B2, “Screening assays for antioxidants and antiproliferative compounds” (University of Massachusetts, priority 2004, dated 2009).
“And” between values parts separate entries of the source, which are not always exact repeats. Identical values can stand only once. Like-named read-outs stand apart in the source and are kept apart here. Square brackets hold non-standard residues; d marks the D form. Peptide text beside a SMILES is read from it. * marks the point of attachment. pGlu = O=C1CC[C@@H](C(=O)O)N1; X1 = O=C(Cc1ccc(O)c(I)c1)*; Nle = CCCC[C@H](N)C(=O)O

What was measured:
[1] = molecular target: T1, vasopressin (V1a) receptor (Homo sapiens, UniProt P37288); assay: ^125I-HOLVA binding to PC3 cell membranes; conditions: 60 μM agent
T1 construct: endogenous in cells; host or cells: PC3 cells (ATCC)

[2] = molecular target: neurotensin-2 receptor (NTR2) (Homo sapiens, UniProt O95665); conditions: read-out: binding affinity; cited from earlier work
[3] = molecular target: neurotensin-1 receptor (NTR1) (Homo sapiens, UniProt P30989); conditions: read-out: binding affinity; cited from earlier work
melanoma cell growth = conditions: Casagrande and Darbon, 2001; cited from earlier work
[4] = system: cancers from skin, pancreas, liver and breast; conditions: Huang et al., 1999; cited from earlier work
protein kinase C = conditions: Ferriola et al., 1989; cited from earlier work
NTR1 [5] = molecular target: T2, NTR1 (Homo sapiens, UniProt P30989); assay: ^125I-NT binding to PC3 cells; conditions: for Efficacy for altering NT binding to NTR: flavonoids; for NT Binding Assay: ability to enhance NT binding in PC3 cells
T2 construct: endogenous in cells; host or cells: PC3 cells (ATCC)

ERK = assay: NT-induced ERK activation in PC3 cells (western blot); type: cell-based; conditions: for IC50: Homo sapiens, PC-3, 0.05 h, 3 minutes, 10 nM NT
Protocol: Anticancer activity was assessed using methods from Hassan et al., Regul. […] Western blotting was used to assess activation of growth pathways. In particular we measured the activation of a MAP-kinase called ERK using antibodies specific for the phosphorylated form. Serum was withdrawn for 24 hours from 80% confluent PC3 cells in 60 mm dishes. Cells were washed in Locke, then exposed for 3 minutes to 10 nM NT as stimulus. Reactions were stopped on ice, and cells were washed in buffer containing phosphatase and protease inhibitors. Cells were extracted into 2×SDS buffer, and proteins were separated by SDS-PAGE using 10% minigels. Proteins were electroeluted onto PVDF, and blots were blocked in non-fat dry milk in TTBS buffer. Blots were incubated with the primary antibody in blocking buffer for 18 hours at 4° C., washed in TTBS, then incubated with horseradish peroxidase-linked secondary antibody for 1 hour at 20° C. Enhanced chemoluminescence was performed according to manufacturer (Santa Cruz) and autoradiographs were scanned for computerized densitometric analysis. The results for the phospho-ERK were normalized by stripping the blots and reprobing with antibodies that measured the total ERK concentration.

PC3 cells = assay: NT-induced proliferation of PC3 cells (^3H-thymidine); type: cell-based; conditions: for IC50: Homo sapiens, PC-3, 24 hours, 10 nM NT, read-out: IC50 for inhibition of NT-induced proliferation
[6] = system: IP formation in PC3 cells; assay: IP formation in PC3 cells in response to ionomycin; type: cell-based
Protocol: Ca^2+-ionophore (ionomycin) stimulated IP formation, reproducing ≅63% of the NT response. […] When added 2 minutes after a maximal dose of NT (30 nM), low doses of ionomycin (2-10 μM) enhanced the NT response. […] In contrast, a maximal dose of ionomycin gave less than additive enhancement of the NT response.

[7] = set-up: key: +: All of the compounds listed in Table 12 were anticancerous; conditions: from anticancer literature; cited from earlier work
[8] = system: ATP-induced IP formation in PC3 cells; conditions: maximal dose (10 μM)
[9] = molecular target: T1, vasopressin (V1a) receptor; assay: ^125I-HOLVA binding to PC3 cells
bombesin receptor = molecular target: T3, bombesin receptor (Homo sapiens, UniProt P30550); assay: ^125I-[Nle14]-bombesin binding to PC3 cells
T3 construct: endogenous in cells; host or cells: PC3 cells (ATCC)

NTR1 [10] = molecular target: T2, NTR1; assay: ^125I-NT binding to PC3 cell membranes; conditions: 22° C., 60 minutes
β2-adrenergic receptor [11] = molecular target: T4, β2-adrenergic receptor (Homo sapiens, UniProt P07550); assay: ^125I-pindolol binding to PC3 cells
T4 construct: endogenous in cells; host or cells: PC3 cells (ATCC)

EGF receptor = molecular target: T5, EGF receptor (Homo sapiens, UniProt P00533); assay: ^125I-EGF binding to PC3 cells
T5 construct: endogenous in cells; host or cells: PC3 cells (ATCC)

5-LOX = conditions: range of reported values, various blood cell systems; cited from earlier work
[12] = system: NT-induced inositol phosphate (IP) formation in PC3 cells; assay: NT-induced IP formation in PC3 cells; type: cell-based; conditions: for IC50: Homo sapiens, PC-3; for IP Formation Efficacy (% decrease): maximal % decrease in NT-induced IP formation
β2-adrenergic receptor [13] = molecular target: T4, β2-adrenergic receptor; assay: ^125I-pindolol binding to PC3 cell membranes; conditions: 60 μM agent
NTR1 [14] = molecular target: T2, NTR1; assay: Cell-surface binding and internalization of ^125I-NT in PC3 cells; type: cell-based; conditions: 50 μM agent, 37° C., prebound at 4° C.
[15] = 10^5 cpm ^125I-ligand, PC3 cells
[16] = [agent] at which IP formation was decreased by 50%

T3 sequence (P30550 whole entry): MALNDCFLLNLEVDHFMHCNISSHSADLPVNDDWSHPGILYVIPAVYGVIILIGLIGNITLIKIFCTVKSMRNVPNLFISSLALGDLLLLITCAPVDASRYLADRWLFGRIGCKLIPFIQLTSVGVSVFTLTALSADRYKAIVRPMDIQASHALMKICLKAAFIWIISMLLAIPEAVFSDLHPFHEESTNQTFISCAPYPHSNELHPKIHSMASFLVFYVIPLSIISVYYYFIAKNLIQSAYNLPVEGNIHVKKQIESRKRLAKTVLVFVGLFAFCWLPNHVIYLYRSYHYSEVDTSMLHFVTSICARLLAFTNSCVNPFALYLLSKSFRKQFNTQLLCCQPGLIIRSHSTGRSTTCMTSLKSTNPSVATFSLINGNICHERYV
T5 sequence (P00533 25-1210): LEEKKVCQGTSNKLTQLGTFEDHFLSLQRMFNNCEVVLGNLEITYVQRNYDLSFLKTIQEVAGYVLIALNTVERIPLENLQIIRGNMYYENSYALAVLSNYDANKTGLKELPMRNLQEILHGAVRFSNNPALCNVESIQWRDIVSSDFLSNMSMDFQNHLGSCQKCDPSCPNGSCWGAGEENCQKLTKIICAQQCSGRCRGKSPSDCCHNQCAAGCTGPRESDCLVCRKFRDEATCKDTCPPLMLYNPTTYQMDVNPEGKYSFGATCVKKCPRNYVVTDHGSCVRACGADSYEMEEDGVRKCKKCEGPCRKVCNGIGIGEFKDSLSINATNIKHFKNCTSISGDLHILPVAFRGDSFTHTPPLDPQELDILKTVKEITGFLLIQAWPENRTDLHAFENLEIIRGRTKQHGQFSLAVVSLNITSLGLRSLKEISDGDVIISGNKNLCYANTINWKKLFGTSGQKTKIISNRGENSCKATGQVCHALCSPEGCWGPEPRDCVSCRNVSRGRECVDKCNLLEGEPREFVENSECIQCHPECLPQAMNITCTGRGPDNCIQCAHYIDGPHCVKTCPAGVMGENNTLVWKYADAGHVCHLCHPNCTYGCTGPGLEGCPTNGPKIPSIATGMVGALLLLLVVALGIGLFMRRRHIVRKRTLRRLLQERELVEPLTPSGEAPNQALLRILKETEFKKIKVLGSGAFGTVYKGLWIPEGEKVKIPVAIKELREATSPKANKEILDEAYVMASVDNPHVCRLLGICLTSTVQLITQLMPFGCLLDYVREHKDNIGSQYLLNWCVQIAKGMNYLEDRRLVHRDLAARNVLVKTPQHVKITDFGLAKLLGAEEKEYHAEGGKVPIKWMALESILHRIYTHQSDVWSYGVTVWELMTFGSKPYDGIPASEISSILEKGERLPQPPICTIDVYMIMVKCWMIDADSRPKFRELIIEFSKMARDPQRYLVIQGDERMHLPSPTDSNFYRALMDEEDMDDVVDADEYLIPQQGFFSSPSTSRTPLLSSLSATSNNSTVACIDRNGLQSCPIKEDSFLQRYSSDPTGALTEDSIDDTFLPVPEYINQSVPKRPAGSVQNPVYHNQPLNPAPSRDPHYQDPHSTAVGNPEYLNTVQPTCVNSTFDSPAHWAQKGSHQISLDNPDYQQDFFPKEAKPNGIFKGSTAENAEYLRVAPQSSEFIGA
T1 sequence (P37288 whole entry): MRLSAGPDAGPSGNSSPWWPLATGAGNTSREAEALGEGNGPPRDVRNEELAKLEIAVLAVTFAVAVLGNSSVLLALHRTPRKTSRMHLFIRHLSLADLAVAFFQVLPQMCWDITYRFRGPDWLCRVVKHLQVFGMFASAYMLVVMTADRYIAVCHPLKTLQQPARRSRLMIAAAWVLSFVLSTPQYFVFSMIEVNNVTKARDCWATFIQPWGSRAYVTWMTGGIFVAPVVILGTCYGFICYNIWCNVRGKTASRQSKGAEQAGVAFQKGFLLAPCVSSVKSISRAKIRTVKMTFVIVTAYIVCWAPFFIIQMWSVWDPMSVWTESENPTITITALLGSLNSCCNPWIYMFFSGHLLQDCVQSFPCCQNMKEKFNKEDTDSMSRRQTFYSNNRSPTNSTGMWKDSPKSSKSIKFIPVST
T2 sequence (P30989 whole entry): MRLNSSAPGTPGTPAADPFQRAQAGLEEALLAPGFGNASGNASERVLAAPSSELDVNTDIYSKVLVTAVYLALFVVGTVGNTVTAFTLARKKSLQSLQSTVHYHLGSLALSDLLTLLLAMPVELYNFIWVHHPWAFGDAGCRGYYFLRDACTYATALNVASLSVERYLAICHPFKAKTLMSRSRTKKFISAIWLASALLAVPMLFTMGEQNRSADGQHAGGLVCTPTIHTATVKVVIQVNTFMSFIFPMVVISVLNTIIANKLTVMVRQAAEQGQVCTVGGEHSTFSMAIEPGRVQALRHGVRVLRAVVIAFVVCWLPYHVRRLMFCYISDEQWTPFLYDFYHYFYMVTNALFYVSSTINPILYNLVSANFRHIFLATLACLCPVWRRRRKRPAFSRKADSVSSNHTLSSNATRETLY
T4 sequence (P07550 whole entry): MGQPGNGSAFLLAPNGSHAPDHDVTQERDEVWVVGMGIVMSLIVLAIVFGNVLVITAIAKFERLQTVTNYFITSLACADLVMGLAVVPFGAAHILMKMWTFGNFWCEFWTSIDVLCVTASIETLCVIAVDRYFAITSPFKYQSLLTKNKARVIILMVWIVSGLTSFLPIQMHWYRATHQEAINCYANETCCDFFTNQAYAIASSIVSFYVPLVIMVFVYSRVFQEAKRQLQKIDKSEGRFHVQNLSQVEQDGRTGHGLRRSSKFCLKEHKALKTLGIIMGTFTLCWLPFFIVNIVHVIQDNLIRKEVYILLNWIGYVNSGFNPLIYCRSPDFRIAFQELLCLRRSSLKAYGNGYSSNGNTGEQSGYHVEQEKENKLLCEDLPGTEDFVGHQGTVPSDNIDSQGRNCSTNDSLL
Chain of neurotensin-1 receptor (NTR1) (P30989 whole entry, species assumed): as the sequence (P30989 whole entry) above
Chain of neurotensin-2 receptor (NTR2) (O95665 whole entry, species assumed): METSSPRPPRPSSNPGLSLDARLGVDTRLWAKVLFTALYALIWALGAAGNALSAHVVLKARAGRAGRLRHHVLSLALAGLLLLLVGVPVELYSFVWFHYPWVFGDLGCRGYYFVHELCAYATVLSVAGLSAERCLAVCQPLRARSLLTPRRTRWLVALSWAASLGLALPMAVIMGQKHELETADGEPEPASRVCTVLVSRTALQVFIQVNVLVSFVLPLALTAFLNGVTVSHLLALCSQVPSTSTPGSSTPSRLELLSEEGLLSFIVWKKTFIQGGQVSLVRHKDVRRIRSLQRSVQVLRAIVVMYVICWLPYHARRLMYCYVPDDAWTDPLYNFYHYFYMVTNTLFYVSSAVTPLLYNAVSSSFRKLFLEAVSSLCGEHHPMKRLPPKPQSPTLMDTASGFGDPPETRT

Compound: COC(=O)C1=C(C)NC(C)=C(C(=O)OC)C1c1ccccc1[N+](=O)[O-] [NIF, nifedipine]
- Binding (% control ± SEM) [1]: 90 ± 3 % control

Compound: Trp 11 NT(1-13): peptide identical to NT (1-13) except for substitution of tryptophan for tyrosine at amino acid 11 (QLYENKPRRPWIL; Neurotensin; UniProt P30990 151-163, looked up, variant Y11W)
- Kd [2]: ~0.027 µM
- Kd [3]: ~0.001 µM

Compound: catechin
- Efficacy to inhibit melanoma cell growth (melanoma cell growth): inactive
- Efficacy to inhibit growth of cancers from skin, pancreas, liver and breast [4]: inactive
- Efficacy to inhibit protein kinase C (protein kinase C): inactive
- Efficacy for altering NT binding to NTR (NTR1 [5]): inactive

Compound: C(=Cc1ccccc1)c1ccccc1 [stilbene]
- Effect on NT-induced ERK activation (ERK): inactive
- Effect on NT-induced cell proliferation (PC3 cells): inactive

Compound: C[C@H](CCC(=O)O)C[C@H](C)C[C@H](C)C(=O)/C=C(\O)[C@H](C)C[C@H](C)C/C=C/[C@@H](C)[C@@H](O)[C@@H](C)[C@@H](O)C[C@@H]1CC[C@@](C)([C@H]2CC[C@@](C)([C@@H](C)O)O2)O1 [ionomycin]
- IP formation as share of the NT response [6]: ~63%

Compound: O=c1c(O)c(-c2ccc(O)c(O)c2)oc2cc(O)cc(O)c12 [quercetin]
- Anti-cancer [7]: +
- IC50 (ERK): 25 µM
- IC50 (PC3 cells): 0.5 µM
- NT Binding Assay (NTR1 [5]): +

Compound: Nc1ncnc2c1ncn2[C@@H]1O[C@H](COP(=O)(O)OP(=O)(O)OP(=O)(O)O)[C@@H](O)[C@H]1O [ATP]
- Stimulation of IP formation by ATP [8]: ~17 fold and > 15 fold

Compound: CCOc1ccc(C[C@@H](NC(=O)Cc2ccc(O)c(I)c2)C(=O)N[C@@H](Cc2ccccc2)C(=O)N[C@@H](CCC(N)=O)C(=O)N[C@@H](CC(N)=O)C(=O)N[C@@H](CCCCN)C(=O)N2CCC[C@H]2C(=O)N[C@@H](CCCNC(=N)N)C(N)=O)cc1 [^125I-HOLVA, des-Gly-[Phaal, D-Tyr(Et)2, Lys6, Arg8]-vasopressin] (X1-[dY](Et)FQNKPR-NH2; N-terminus and C-terminus assumed)
- Specific Binding (% of total) [9, 15]: 77 % of total
- Bmax ([9]; Scatchard analysis): 156 ± 12 fmol/mg

Compound: CCCC[C@H](NC(=O)[C@H](CC(C)C)NC(=O)[C@H](Cc1c[nH]cn1)NC(=O)CNC(=O)[C@@H](NC(=O)[C@H](C)NC(=O)[C@H](Cc1c[nH]c2ccccc12)NC(=O)[C@H](CCC(N)=O)NC(=O)[C@H](CC(N)=O)NC(=O)CNC(=O)[C@H](Cc1ccc(O)cc1)NC(=O)[C@H](CCCNC(=N)N)NC(=O)[C@H](CCC(N)=O)NC(=O)[C@@H]1CCC(=O)N1)C(C)C)C(N)=O [^125I-[Nle^14]-bombesin] ([pGlu]QRYGNQWAVGHL[Nle]-NH2; C-terminus assumed)
- Specific Binding (% of total) (bombesin receptor; [15]): 95 % of total
- Bmax (bombesin receptor; Scatchard analysis): 1016 ± 64 fmol/mg

Compound: CC(C)c1ccc2c(c1)c(SC(C)(C)C)c(CC(C)(C)C(=O)O)n2Cc1ccc(Cl)cc1 [MK886]
- Specific Binding (% control) (bombesin receptor; 12 μM agent): 106 ± 5 % control
- Specific Binding (% control) (bombesin receptor; 60 μM agent): 125 ± 7 % control
- Anti-cancer [7]: +
- Specific NT-Binding (% control) (NTR1 [10]; 10 μM agent): 99 ± 3 % control
- Specific NT-Binding (% control) (NTR1 [10]; 25 μM agent): 107 ± 4 % control
- Specific NT-Binding (% control) (NTR1 [10]; 75 μM agent): 97 ± 4 % control
- Specific Binding (% control) (β2-adrenergic receptor [11]; 12 μM agent): 105 ± 3 % control
- Specific Binding (% control) (β2-adrenergic receptor [11]; 60 μM agent): 102 ± 6 ^ % control
- Specific Binding (% control) (EGF receptor; 12 μM agent): 141 ± 7 % control
- Specific Binding (% control) (EGF receptor; 60 μM agent): 165 ± 11 % control
- Increase in EGF binding (EGF receptor; PC3 cells): 65%
- Specific Binding (% control) ([9]; 12 μM agent): 93 ± 5 % control
- Specific Binding (% control) ([9]; 60 μM agent): 67 ± 3 % control
- NT Binding Efficacy % increase (NTR1 [5]; LOX blockers): 210 % increase
- EC50 (NTR1 [5]; [agent] giving 100% increase in NT binding): 18 µM
- NT Binding Assay (NTR1 [5]): +
- IC50 (5-LOX): 0.1 to 1 µM

Compound: Oc1ccc(C=Cc2cc(O)cc(O)c2)cc1 [resveratrol]
- IC50 (ERK): 50 µM
- IC50 ([12]; [agent] giving 50% decrease in IP formation): 48 µM
- IC50 (PC3 cells): 3 µM

Compound: COc1ccc(CCCOC(Cn2ccnc2)c2ccc(OC)cc2)cc1 (centres unmarked) [SKF-96365]
- % crossreaction (direct competition with ^125I-pindolol) (β2-adrenergic receptor [11]): ~0.0005%
- Binding (% control ± SEM) (β2-adrenergic receptor [13]): 18 ± 5 % control
- Binding (% control ± SEM) [1]: 110 ± 3 % control
- IC50 [12, 16]: 26 µM
- IP Formation Efficacy (% decrease) [12]: 69 % decrease
- EC50 (NTR1 [5]; [agent] at which NT binding was increased by 80%): 23 µM
- NT Binding Efficacy % increase (NTR1 [5]; maximal % increase in NT binding observed for each agent): 155 % increase

Compound: O=C(CCc1ccc(O)cc1)c1c(O)cc(O)cc1O [Phloretin]
- Internalization rate of prebound cell-surface ^125I-NT (NTR1 [14]): 8.1±0.7 %/minute
- IC50 [12, 16]: 23 µM
- IP Formation Efficacy (% decrease) [12]: 70 % decrease
- EC50 (NTR1 [5]): 27 µM

Compound: O=C1c2c(O)cc(O)cc2O[C@H](c2ccc(O)c(O)c2)[C@H]1O [taxifolin]
- Efficacy to inhibit melanoma cell growth (melanoma cell growth): inactive
- Efficacy to inhibit growth of cancers from skin, pancreas, liver and breast [4]: inactive
- Efficacy to inhibit protein kinase C (protein kinase C): inactive
- Effect on NT-induced ERK activation (ERK): inactive
- Effect on NT-induced cell proliferation (PC3 cells): inactive
- Efficacy for altering NT binding to NTR (NTR1 [5]): inactive

Compound: COc1ccc(CCN(C)CCCC(C#N)(c2ccc(OC)c(OC)c2)C(C)C)cc1OC (centres unmarked) [Verapamil, verapamil]
- % crossreaction (direct competition with ^125I-pindolol) (β2-adrenergic receptor [11]): ~0.0005%
- Binding (% control ± SEM) (β2-adrenergic receptor [13]): 9 ± 2 % control
- Binding (% control ± SEM) [1]: 91 ± 5 % control
